Results: publication PMC6164072, “Lysoquinone-TH1, a New Polyphenolic Tridecaketide Produced by Expressing the Lysolipin Minimal PKS II in Streptomyces albus” (Antibiotics, 2018)

Target: T1, PDE-4B2 (Homo sapiens, UniProt Q07343)
T1 construct: gene PDE4B; human recombinant PDE-4B2 (BPS Bioscience no. 60042)
Assay: PDELight HTS cAMP phosphodiesterase luminescence assay
Type: biochemical

T1 sequence (Q07343 1-564 isoform Q07343-2): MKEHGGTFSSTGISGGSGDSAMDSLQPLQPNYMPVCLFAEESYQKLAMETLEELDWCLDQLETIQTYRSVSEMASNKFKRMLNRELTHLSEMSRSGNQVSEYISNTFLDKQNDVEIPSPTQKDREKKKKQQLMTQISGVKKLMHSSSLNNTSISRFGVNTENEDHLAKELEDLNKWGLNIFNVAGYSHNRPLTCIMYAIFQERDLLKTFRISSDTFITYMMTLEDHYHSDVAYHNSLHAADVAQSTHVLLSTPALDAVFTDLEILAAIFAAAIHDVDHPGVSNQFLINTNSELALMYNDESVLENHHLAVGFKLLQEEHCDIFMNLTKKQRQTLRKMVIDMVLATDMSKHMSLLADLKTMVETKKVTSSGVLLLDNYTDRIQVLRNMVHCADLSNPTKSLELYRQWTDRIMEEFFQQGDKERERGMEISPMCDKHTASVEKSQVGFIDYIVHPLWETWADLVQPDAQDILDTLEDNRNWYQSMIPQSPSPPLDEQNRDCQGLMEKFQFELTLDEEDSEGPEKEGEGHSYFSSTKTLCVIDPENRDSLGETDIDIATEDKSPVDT

IC50: 10 to 20 µM
Substance: lysoquinone-TH1 [compound 7]
